In this test the test system is HeLa Cells. Briefly: HeLa GI50 determination (SRB growth inhibition). The format is cell-based. The settings on record: 48 h; human cervical carcinoma cell line HeLa S-3; 2 days of treatment; sulforhodamine B staining. On the procedure: A. HeLa GI50 Determinations
Growth inhibition (GI50) values were measured on the human cervical carcinoma cell line, HeLa S-3, which were selected for growth on plastic. The HeLa cell assay was based on the description of Skehan et al., J. Natl. Cancer Inst., 82:1107-12 (1990), which is hereby incorporated by reference in its entirety. HeLa cells were plated at 2×10^4 cells/well in 96 well plates. One day later, a control plate was fixed by the addition of TCA to 5%. After five rinses with tap water, the plate was air-dried and stored at 4° C. Test compounds were added to the remaining plates at 10-fold dilutions. Two days later, all plates were fixed as described above. Cells were then stained by the addition of 100 μL per well of 0.4% sulforhodamine B (SRB) in 1% acetic acid for 30 min at 4° C. Wells were then quickly rinsed 5× with 1% acetic acid and allowed to air dry. The SRB was then solubilized by the addition of 100 μL per well of unbuffered 10 mM Tris base. Dye was quantified by measuring absorbance at 490 nm on a Molecular Devices microplate reader. Growth inhibition was calculated according to the following equation: GI=100×(T−T0)/(C−T0), where the optical density (OD) of the test well after 2 days of treatment was T, the OD of the wells in the control plate on day 0 was T0 and C was the OD of untreated wells. […]
A general note: Sulforhodamine B stains cellular protein and so reports cell mass.

Consider two molecules from patent US20080125451A1, “VINORELBINE DERIVATIVES” (AMR TECHNOLOGY, INC., priority 2006, published 2008).

With `CC[C@]12C=CCN3CC[C@@]4(c5cc([C@@]6(C(=O)OC)C[C@H]7CC(C(C)(F)F)CN(Cc8c6[nH]c6ccc(SC)cc86)C7)c(OC)cc5N(C)[C@H]4[C@@](O)(C(=O)OC)[C@@H]1OC(C)=O)[C@@H]32` (some centres unmarked) [Example 12, 11′-(Methylsulfanyl)vinflunine], the GI50 stood at 6.93 nM.

As for `CCc1ccc2[nH]c3c(c2c1)CN1CC(C(C)(F)F)C[C@@H](C1)C[C@]3(C(=O)OC)c1cc2c(cc1OC)N(C)[C@H]1[C@@](O)(C(=O)OC)[C@H](OC(C)=O)[C@]3(CC)C=CCN4CC[C@]21[C@@H]43` (some centres unmarked) [Example 3, 11′-Ethylvinflunine], growth was halved (GI50) at 170 nM.

What is called GI50 is the concentration giving 50% growth inhibition. Read a low GI50 as more potent growth inhibition.
